Measurements from US20250034164A1, “NOVEL COMPOUND AND COMPOSITION FOR PREVENTING OR TREATING NEUROINFLAMMATORY BRAIN DISEASES COMPRISING SAME AS ACTIVE INGREDIENT” (KOREA INSTITUTE OF OCEAN SCIENCE & TECHNOLOGY, priority 2021, published 2025).

System: nitric oxide (NO) produced in mouse BV-2 microglia cells stimulated with LPS
Experiment: NO production inhibition in LPS-stimulated BV-2 microglia cells (Griess reagent)
Format: cell-based
Settings: LPS 200 ng/ml; for IC50: mouse BV-2 microglia cells, 24 h, read-out: NO inhibitory activity (IC50 value)
Procedure: BV-2 microglia cells were cultured in a humidified 5% CO2 incubator at 37° C. using a Dulbecco's modified Eagle medium supplemented with 5% fetal bovine serum and 1% penicillin/streptomycin at 100 units/mL.
In all experiments, the number of cells was 2.5×10^5 cell/ml, the cells were first treated with each of Compounds of Examples 1 to 25 by concentration (2.5 to 200 μg/ml), and LPS was diluted in medium and used at a concentration of 200 ng/ml. A cytotoxicity test was performed using MTT assay, and the MTT assay was performed by performing NO assay and injecting 30 μl of MTT at a concentration of 0.5 mg/ml into the cells in a microplate. After reacting for 2 hours in the incubator, formazan crystals were dissolved in 100 μl of DMSO, and the absorbance was measured using a Vmax microplate reader (Tencan Co., Switzerland) with a wavelength of 540 nm. In order to quantitatively measure the production of nitric oxide (NO), mouse BV-2 microglia cells were prepared in a microplate (96 well), and added with LPS (200 ng/ml) and Compounds by concentration (2.5 to 200 μg/ml). The cells reacted in an incubator for 24 h, and 50 μl of the supernatant reacted with a Griess reagent (a mixed solution of 1% sulfanilamide, 0.1% N-(1-naphthyl)-ethylenediamine dihydrochloride, and 2.5% H3PO4), and then the absorbance was measured using a Vmax 96-well microplate spectrophotometer with a wavelength of 550 nm.
In order to analyze the anti-inflammatory efficacy of Compound of Example 1, the concentration inhibitory effect of nitric oxide (NO) produced in mouse BV-2 microglia cells stimulated with LPS (200 ng/ml), a neuroinflammatory factor, was confirmed.
The neuroinflammation inhibitory effects of Compounds of Examples 2 to 25 were confirmed.
In order to analyze the anti-inflammatory efficacy of Compound 26 of Chemical Formula 2, the concentration inhibitory effect of nitric oxide (NO) produced in mouse BV-2 microglia cells stimulated with LPS (200 ng/ml), a neuroinflammatory factor, was confirmed. Compound 26 of Chemical Formula 2 was purchased from Santa Cruz biotechnology (CAS 79127-35-8) and the experiment was performed. As a result of treating Compound of Chemical Formula 2 at […], it was confirmed that the amount of nitric oxide (NO) was reduced, as shown in FIG. 37A.

SMILES: O=C(OCC1=C[C@H]2[C@@H]3C=C[C@H]2C(=O)O[C@@H]3O1)c1ccc2ccccc2c1 [Compound 13, ((1S,4aS,5R,7aS)-8-oxo-1,4a,5,7a-tetrahydro-1,5-(epoxymethano)cyclopenta[c]pyran-3-yl)methyl 2-naphthoate]
- IC50: > 20 µM

SMILES: NC(=O)C1=C[C@H]2[C@@H]3C=CC2(O)C(=O)O[C@@H]3O1 (stereo in doubt) [Compound 26, (1S,4aS,5R,7aS)-5-hydroxy-8-oxo-1,4a,5,7a-tetrahydro-1,5-(epoxymethano)cyclopenta[c]pyran-3-carboxamide]
- amount of nitric oxide (NO) (BV-2 cells, treated at 2.5 to 20 PM (FIG. 37A)): reduced

SMILES: CCC(C)C(=O)OCC1=C[C@H]2[C@@H]3C=C[C@H]2C(=O)O[C@@H]3O1 (stereo partly drawn) [Compound 9, ((1S,4aS,5R,7aS)-8-oxo-1,4a,5,7a-tetrahydro-1,5-(epoxymethano)cyclopenta[c]pyran-3-yl)methyl 2-methyl butanoate]
- IC50: > 20 µM

SMILES: O=C(OCC1=C[C@H]2[C@@H]3C=C[C@H]2C(=O)O[C@@H]3O1)c1ccc(Cl)cc1 [Compound 19, ((1S,4aS,5R,7aS)-8-oxo-1,4a,5,7a-tetrahydro-1,5-(epoxymethano)cyclopenta[c]pyran-3-yl)methyl 4-chlorobenzoate]
- IC50: 14.5 µM

SMILES: O=C(OCC1=C[C@H]2[C@@H]3C=C[C@H]2C(=O)O[C@@H]3O1)c1ccc([N+](=O)[O-])cc1 [Compound 21, ((1S,4aS,5R,7aS)-8-oxo-1,4a,5,7a-tetrahydro-1,5-(epoxymethano)cyclopenta[c]pyran-3-yl)methyl 4-nitrobenzoate]
- IC50: > 20 µM

SMILES: C=CCCCCCCCCC(=O)OCC1=C[C@H]2[C@@H]3C=C[C@H]2C(=O)O[C@@H]3O1 [Compound 8, ((1S,4aS,5R,7aS)-8-oxo-1,4a,5,7a-tetrahydro-1,5-(epoxymethano)cyclopenta[c]pyran-3-yl)methylundec-10-enoate]
- IC50: > 20 µM

SMILES: O=C1O[C@@H]2OC(CCl)=C[C@H]3[C@@H]2C=C[C@@H]13 [Compound 25, (1S,4aS,5R,7aS)-3-(chloromethyl)-1,4a,5,7a-tetrahydro-1,5-(epoxymethano)cyclopenta[c]pyran-8-one]
- IC50: > 20 µM

SMILES: C#CC(=O)OCC1=C[C@H]2[C@@H]3C=C[C@H]2C(=O)O[C@@H]3O1 [Compound 14, ((1S,4aS,5R,7aS)-8-oxo-1,4a,5,7a-tetrahydro-1,5-(epoxymethano)cyclopenta[c]pyran-3-yl)methyl propiolate]
- IC50: 1.4 µM

SMILES: O=C(O)C1=C[C@H]2[C@@H]3C=C[C@H]2C(=O)O[C@@H]3O1 [Compound 5, (1S,4aS,5R,7aS)-8-oxo-1,4a,5,7a-tetrahydro-1,5-(epoxymethano)cyclopenta[c]pyran-3-carboxylic acid]
- IC50: > 20 µM

SMILES: COCC1=C[C@H]2[C@@H]3C=C[C@H]2C(=O)O[C@@H]3O1 [Compound 3, (1S,4aS,5R,7aS)-3-(methoxymethyl)-1,4a,5,7a-tetrahydro-1,5-(epoxymethano)cyclopenta[c]pyran-8-one]
- IC50: > 20 µM

SMILES: Cc1ccc(C(=O)OCC2=C[C@H]3[C@@H]4C=C[C@H]3C(=O)O[C@@H]4O2)cc1 [Compound 10, ((1S,4aS,5R,7aS)-8-oxo-1,4a,5,7a-tetrahydro-1,5-(epoxymethano)cyclopenta[c]pyran-3-yl)methyl 4-methyl benzoate]
- IC50: > 20 µM

SMILES: O=C(OCC1=C[C@H]2[C@@H]3C=C[C@H]2C(=O)O[C@@H]3O1)c1ccc(I)cc1 [Compound 20, ((1S,4aS,5R,7aS)-8-oxo-1,4a,5,7a-tetrahydro-1,5-(epoxymethano)cyclopenta[c]pyran-3-yl)methyl 4-iodobenzoate]
- IC50: > 20 µM

SMILES: O=C1O[C@@H]2OC(CI)=C[C@H]3[C@@H]2C=C[C@@H]13 [Compound 22, (1S,4aS,5R,7aS)-3-(iodomethyl)-1,4a,5,7a-tetrahydro-1,5-(epoxymethano)cyclopenta[c]pyran-8-one]
- IC50: > 20 µM

SMILES: O=C1O[C@@H]2OC(CO)=C(Br)[C@H]3[C@@H]2C=C[C@@H]13 [Compound 24, (1S,4aS,5R,7aS)-4-bromo-3-(hydroxymethyl)-1,4a,5,7a-tetrahydro-1,5-(epoxymethano)cyclopenta[c]pyran-8-one]
- IC50: < 20 µM

SMILES: O=C1O[C@@H]2OC(CBr)=C[C@H]3[C@@H]2C=C[C@@H]13 [Compound 23, (1S,4aS,5R,7aS)-3-(bromomethyl)-1,4a,5,7a-tetrahydro-1,5-(epoxymethano)cyclopenta[c]pyran-8-one]
- IC50: > 20 µM

SMILES: COc1ccc(C(=O)OCC2=C[C@H]3[C@@H]4C=C[C@H]3C(=O)O[C@@H]4O2)cc1 [Compound 11, ((1S,4aS,5R,7aS)-8-oxo-1,4a,5,7a-tetrahydro-1,5-(epoxymethano)cyclopenta[c]pyran-3-yl)methyl 4-methoxybenzoate]
- IC50: > 20 µM

SMILES: C#CC/N=C/C1=C[C@H]2[C@@H]3C=C[C@H]2C(=O)O[C@@H]3O1 [Compound 15, (1S,4aS,5R,7aS)-3-((E)-(prop-2-yn-1-ylimino)methyl)-1,4a,5,7a-tetrahydro-1,5-(epoxymethano)cyclopenta[c]pyran-8-one]
- IC50: 12.4 µM

SMILES: CC(=O)OCC1=C[C@H]2[C@@H]3C=C[C@H]2C(=O)O[C@@H]3O1 [Compound 2, ((1S,4aS,5R,7aS)-8-oxo-1,4a,5,7a-tetrahydro-1,5-(epoxymethano)cyclopenta[c]pyran-3-yl)methyl acetate]
- IC50: > 20 µM

SMILES: O=C(OCC1=C[C@H]2[C@@H]3C=C[C@H]2C(=O)O[C@@H]3O1)c1cccc2c1-c1ccccc1C2=O [Compound 16, ((1S,4aS,5R,7aS)-8-oxo-1,4a,5,7a-tetrahydro-1,5-(epoxymethano)cyclopenta[c]pyran-3-yl)methyl 9-oxo-9H-fluorene-4-carboxylate]
- IC50: 3.8 µM

SMILES: O=C(OCC1=C[C@H]2[C@@H]3C=C[C@H]2C(=O)O[C@@H]3O1)c1ccc(-c2ccccc2)cc1 [Compound 12, ((1S,4aS,5R,7aS)-8-oxo-1,4a,5,7a-tetrahydro-1,5-(epoxymethano)cyclopenta[c]pyran-3-yl)methyl [1,1′-biphenyl]-4-carboxylate]
- IC50: > 20 µM

SMILES: O=C(OCC1=C[C@H]2[C@@H]3C=C[C@H]2C(=O)O[C@@H]3O1)c1ccccc1 [Compound 7, ((1S,4aS,5R,7aS)-8-oxo-1,4a,5,7a-tetrahydro-1,5-(epoxymethano)cyclopenta[c]pyran-3-yl)methyl benzoate]
- IC50: > 20 µM

SMILES: O=C(OCC1=C[C@H]2[C@@H]3C=C[C@H]2C(=O)O[C@@H]3O1)c1cc2ccccc2o1 [Compound 17, ((1S,4aS,5R,7aS)-8-oxo-1,4a,5,7a-tetrahydro-1,5-(epoxymethano)cyclopenta[c]pyran-3-yl)methyl benzofuran-2-carboxylate]
- IC50: > 20 µM

SMILES: O=C(OCC1=C[C@H]2[C@@H]3C=C[C@H]2C(=O)O[C@@H]3O1)c1ccc(F)cc1 [Compound 18, ((1S,4aS,5R,7aS)-8-oxo-1,4a,5,7a-tetrahydro-1,5-(epoxymethano)cyclopenta[c]pyran-3-yl)methyl 4-fluorobenzoate]
- IC50: > 20 µM
